Data: PubChem BioAssay (NCI)
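Where inhibition never reached the appropriate level, the endpoint shown equals the highest concentration tested. Otherwise, values were interpolated linearly from a five-concentration, 48-hour dose response in 96-well plates. GI50 = concentration required for 50% inhibition of growth. At the TGI there is no net growth.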

Legend:
Test in all cases: inhibition of tumour cell growth, NCI panel, 48 h
[1] = tested on: MALME-3M melanoma
[2] = tested on: UACC-257 melanoma
[3] = tested on: DU-145 prostate
[4] = tested on: LOX IMVI melanoma
[5] = tested on: SK-MEL-2 melanoma
[6] = tested on: K-562 leukemia
[7] = tested on: ACHN renal
[8] = tested on: CAKI-1 renal
[9] = tested on: NCI-H522 lung
[10] = tested on: SR leukemia

| Compound | GI50 [1] [µM] | TGI [1] [µM] | GI50 [2] [µM] | TGI [2] [µM] | GI50 [3] [µM] | TGI [3] [µM] | GI50 [4] [µM] | TGI [4] [µM] | GI50 [5] [µM] | TGI [5] [µM] | GI50 [6] [µM] | TGI [6] [µM] | GI50 [7] [µM] | TGI [7] [µM] | GI50 [8] [µM] | TGI [8] [µM] | GI50 [9] [µM] | TGI [9] [µM] | TGI [10] [µM] |
| --- | --- | --- | --- | --- | --- | --- | --- | --- | --- | --- | --- | --- | --- | --- | --- | --- | --- | --- | --- |
| COc1cc(/C=N/NC(=O)c2ccc(C(F)(F)F)nc2Nc2ccc(Cl)cc2C)ccc1O | 2.19 | 10.9 | 3.97 | 13.4 | 4.27 | 16.3 | 1.36 | 11.5 | 2.14 | 11.9 | 1.31 | 7.17 | 3.06 | 13.7 | 2.23 | 10.8 | 3.31 | 14.2 |  |
| CN(C)CC[N+]1=Nc2cccc3cccc(c23)N1 |  | > 100 |  | > 100 |  |  |  | > 63.7 |  | > 100 |  | > 63.4 |  | > 100 |  | > 100 |  | > 95.7 | 40.9 |
| CN1C(=O)C(C)(C)C2(SC(C)(C)C2(C)C)N(C)C1=S (stereo not given) |  | > 100 |  | > 100 |  |  |  |  |  | > 100 |  | > 100 |  | > 100 |  | > 100 |  | > 100 | > 100 |
| CCCCCCCCCCCCCCCCCC(CCCCCCCCCCCCCCCCC)OP(=O)(O)O |  | > 100 |  | > 100 |  |  |  | > 100 |  | > 100 |  | > 100 |  | > 100 |  | > 100 |  | > 100 | > 100 |
| Cc1cc(C)nc(NS(=O)(=O)c2ccc(NC(=O)c3ccc(Cl)c4c(Nc5ccc(S(=O)(=O)Nc6nc(C)cc(C)n6)cc5)c5ccccc5nc34)cc2)n1 |  | 53.5 |  | 81.6 |  |  |  | > 100 |  | > 100 |  | 99 |  | > 100 |  | > 100 |  |  |  |
| Cn1cc(C2=C(c3cn(C)c4ncccc34)C(=O)NC2=O)c2ccccc21 | 8.5 | 20 | 12.8 | > 25 | 13.1 | > 25 | 6.97 | > 25 | 6.31 | 12.8 | 6.99 | > 25 | 7.03 | > 25 | 4.79 | > 17.2 | 10.2 | > 25 |  |
| O=C(COc1ccc(Br)cc1Br)N1N=C(c2ccc([N+](=O)[O-])o2)CC1(O)c1ccccc1 (stereo not given) |  | 25.1 |  | 45.4 |  |  |  | 18.4 |  | 31.3 |  | > 100 |  | > 100 |  | 65.3 |  | 20.7 | 8.77 |
| COc1ccccc1C12OC(=O)C1(C)Oc1ccccc1C2=O (stereo not given) |  | > 100 |  | > 100 |  |  |  | > 100 |  | > 100 |  | > 100 |  | > 100 |  |  |  |  |  |
| CCOC(=O)CN1C(=O)c2cccc3cc([N+](=O)[O-])cc(c23)C1=O |  | 5.23 |  | 7.73 |  |  |  | 2.74 |  | 2.87 |  | 2.03 |  | 21.7 |  |  |  |  | 0.381 |
| C/C(CC(=O)CCC(=O)Nc1cccc(C(F)(F)F)c1)=N\NC(=O)NN |  | > 100 |  | > 100 |  |  |  |  |  | > 100 |  | > 100 |  | > 100 |  | > 100 |  | > 100 |  |
| Brc1ccc(N=c2nc3ccccn3n3nc(-c4ccccc4)cc23)cc1 |  | 26.7 |  | > 100 |  |  |  |  |  | > 100 |  | > 100 |  | > 100 |  | 59.9 |  | 88.2 | > 100 |
| COC1CCC2C(NS(=O)(=O)c3ccc(C)cc3)CCCC2O1 (stereo not given) (tested in a mixture with another compound) |  | > 34.5 |  | > 34.5 |  |  |  | 13 |  | > 34.5 |  | 27.8 |  | > 34.5 |  | > 34.5 |  | 31.5 |  |
| CCN(CCO)CC1CCCC2CCCCC21 (stereo not given) |  | > 100 |  | > 100 |  | > 100 |  |  |  | > 100 |  | > 100 |  | > 100 |  | > 100 |  | > 100 |  |
| CC(C)=CC(=O)C1c2cccc(O)c2C(=O)c2c(O)cc(C)cc21 (stereo not given) |  | 7.93 |  | 8.5 |  |  |  | 3.74 |  | 3.6 |  | > 100 |  | 4.77 |  | 21.5 |  | 3.85 |  |
| CCCCC(=O)OCC(=O)[C@]1(O)Cc2c(O)c3c(c(O)c2[C@@H](OC2CC(NC(=O)C(F)(F)F)C(O)C(C)O2)C1)C(=O)c1c(OC)cccc1C3=O (stereo not given in full) |  | 2.76 |  | 8.08 |  | 2.44 |  | 1.37 |  | 6.01 |  | > 21.9 |  | 3.04 |  | 2.63 |  | 3.9 |  |
| NNC(=O)Nc1cccnc1 |  | > 100 |  | > 100 |  | > 100 |  | > 100 |  | > 100 |  | > 100 |  | > 100 |  | > 100 |  | > 100 |  |
| N#CC1C(C#N)C2(c3ccccc3)C(c3ccccc3)=NN(c3ccccc3)CC12 (stereo not given) |  | > 100 |  | > 100 |  |  |  | > 100 |  | > 100 |  | > 100 |  | > 100 |  | > 100 |  |  | > 100 |
| CN(C)C(=N)c1ccccc1 |  | > 100 |  | > 100 |  |  |  | > 100 |  | > 100 |  |  |  |  |  | > 100 |  | > 100 | > 100 |
| CC(C)C/C(CC(=O)CCC(=O)Nc1ccccc1[N+](=O)[O-])=N\NC(=O)c1cc2ccccc2cc1O |  | > 100 |  | > 100 |  |  |  | 79 |  |  |  | > 100 |  | > 100 |  | > 100 |  | 76 | > 100 |
| COc1cc(Cc2cnc(/N=C3\C(=O)N(CN4CCN(c5c(F)cc6c(=O)c(C(=O)O)cn(C7CC7)c6c5OC)CC4C)c4ccc(F)cc43)nc2N)cc(OC)c1OC (stereo not given) |  |  | 22.3 | 44.1 |  |  | 2.38 | 4.74 | 37.8 | > 100 | 6.41 | > 100 | 1.72 | 14.6 | 15.5 | 36 | 63.5 | > 100 |  |
| COC1(OC)CCC2C1C1CCC(OC)(OC)C21 (stereo not given) |  | > 50 |  | > 50 |  |  |  |  |  | > 50 |  | > 50 |  | > 50 |  | > 50 |  | > 50 |  |
| CC1=C(C(=O)NCc2ccccc2)C(/C=C/c2ccccc2)C(C(=O)NCc2ccccc2)=C(C)N1 |  | > 100 |  | > 100 |  |  |  | > 100 |  | > 100 |  | > 100 |  | > 100 |  | > 100 |  |  | > 100 |
